Experiments:
[1] = system: ventral prostate and seminal vesicle of immature castrated male rats; test: Residual androgenic activity in the immature castrated male rat model; type: in vivo; conditions: for Seminal Vesicle weight / Ventral Prostate weight: 10 daily administrations; for effect on the growth of male accessory sex organs (residual androgenic activity): in words, gavage (PO), Tables 3 and 4
Source text: The residual androgenic potential is an important feature to be evaluated for any new progestin, because it is highly predictive of androgenic side-effects in women. One pharmacological model of androgenic activity has been standardized to screen steroids or related compounds in immature castrated male rats, using the hypertrophy of the vental prostate and of the seminal vesicle as the endpoint, following 10 daily administrations (R. I. Dorfman, in Methods in Hormone Research, volume 2, London, Academic Press, 1962: 275-313; A. G. Hilgar and D. J. Hummel, Androgenic and Myogenic Endocrine Bioassay Data, U.S. Department of Health, Education and Welfare, Washington D.C., 1964).

[2] = system: uterus of estrogen-primed immature female rabbits (endometrial transformation); conditions: in words, known from the literature; cited from earlier work
[3] = system: uterus of estrogen-primed immature female rabbits (endometrial transformation); test: Clauberg-McPhail test by oral administration (gavage), endometrial transformation of the rabbit uterus; type: in vivo; conditions: for ED50 (dose for mean McPhail grade equal to 2): mean ± s.e.m., total dose/rabbit/5 days; for Relative activity: relative to nomegestrol acetate = 100%
Protocol: (§1) The progestational activity of the compounds according to the present invention can be assessed mainly in two specific experimental models the affinity for the progesterone receptor (PR) in vitro, and the endometrial tranformation of the rabbit uterus in vivo. Human PRs are readily available in high amounts from the T47-D cell line in culture (M. B. Mockus et al., Endocrinology, 1982, 110, 1564-1571). Relative binding affinities (RBA) for the human T47-D cell PR are determined as previously described (J. Botella et al., J. Steroid Biochem. Molec. Biol., 1994, 50, 41-47) using [^3 H]-ORG 2058 as a labelled specific ligand (G. Fleischmann and M. Beato, Biochim. Biophys. Acta, 1978, 540, 500-517) and nomegestrol acetate as a non-radioactive reference progestin. Competitive incubations were performed against 2 nM of [^3 H]-ORG 2058 for 3 hours at 4° C. with […] of non-labelled steroid, chosen between 4 and 256 nM following a 1/2^n dilution scheme. Displacement curves were fitted for each experiment, and the concentration inhibiting 50% of the specific binding of [^3 H]-ORG 2058 was calculated for each curve (IC50).
One specific pharmacological test has been standardized in vivo for the detection and quantitation of pseudogestagenic activity since the mid-30's: it is based on the property of the uterus of estrogen-primed immature female rabbits to respond to very slight amounts of progestin by a typical endometrial transformation into a densely packed and interlaced epithelial network called "dentelle". The original test schedule, which includes 6 days of estrogen priming (total subcutaneous dose of 30 μg/rabbit of oestradiol benzoate) followed by 5 days of progestational treatment, was designed as early as 1930 by C. Clauberg, Zentr. Gynakol. 1930, 54, 2757-2770. The semi-quantitative scale used to grade the intensity of the microscopical appearance of the dentelle was set up by M. K. McPhail, J. Physiol (London), 1934, 83, 145-156. This overall Clauberg-McPhail procedure has been extensively used to screen steroids for putative progestational activity in vivo and is still part of the basic hormonal profile of any new progestin such as norgestimate (A Phillips et al., Contraception, 1987, 36, 181-192), or desogestrel (J. Van der Vies and J. De Visser, Arzneim. Forsch/Drug Res., 1983, 33, 231-236). The progestational potency is inversely related to the dose needed to induce a half-maximal stimulation of the dentelle, i.e. to record a mean McPhail grade equal to 2. This ED50 is deduced from the dose-responsecurve and expressed in total dose/rabbit/5 days. All compounds were tested only following oral administration by gavage, in suspension in a carboxy-methylcellulose solution.

[4] = system: human T47-D cell progesterone receptor; test: Relative binding affinity to human T47-D cell progesterone receptor ([3H]-ORG 2058 displacement); conditions: for IC50: mean ± s.e.m., 2 nM [3H]-ORG 2058, 3 hours at 4° C., T47-D cell PR, read-out: ED50 (concentration inhibiting 50% of the specific binding of [3H]-ORG 2058); for RBA (relative binding affinity): relative to nomegestrol acetate = 100%
Protocol: as §1

[5] = system: ventral prostate and seminal vesicle of immature castrated male rats; conditions: well-known from the literature (Tausk and de Visser); cited from earlier work
[6] = Table 4, PO, 20 mg/animal/day, mean ± s.e.m. of 7 or 8 animals, castrated controls 10.4 ± 0.6, both ns
[7] = Table 4, PO, 20 mg/animal/day, mean ± s.e.m. of 7 or 8 animals, castrated controls 11.8 ± 0.6, cyproterone acetate p <0.05, Example 4 ns
[8] = Table 3, PO, 20 mg/animal/day, mean ± s.e.m. of 8 animals, castrated controls 12.0 ± 0.9, medroxyprogesterone acetate p <0.001, Example 1 ns
[9] = Table 3, PO, 20 mg/animal/day, mean ± s.e.m. of 8 animals, castrated controls 12.3 ± 0.7, medroxyprogesterone acetate p <0.01, Example 1 ns

Row | SMILES | effect on the growth of male accessory sex organs (residual androgenic activity) [1] | ED50 (dose for mean McPhail grade equal to 2) [3] [μg/rabbit 5 days] | Relative activity [3] [%] | IC50 [4] [nM] | RBA (relative binding affinity) [4] [%] | other results
1 | CC(=O)O[C@]1(C(C)=O)CC[C@H]2[C@@H]3C=C(Cl)C4=CC(=O)[C@@H]5C[C@@H]5[C@]4(C)[C@H]3CC[C@@]21C [Cyproterone acetate] | very weak and limited to the ventral prostate, at the border of statistical significance | – | – | – | – | Seminal Vesicle weight [1, 6]: 11.3 ± 0.6 mg; Ventral Prostate weight [1, 7]: 15.3 ± 1.3 mg; progestational activity [2]: potent progestational activity
2 | CC(=O)O[C@]1(C(C)=O)CC[C@H]2[C@@H]3CC(C)(C)C4=CC(=O)CC[C@@H]4[C@H]3CC[C@@]21C [Example 1, 17α-acetoxy-6,6-dimethyl-3,20-dioxo-19-nor-pregna-4-ene] | totally inactive | 152 ± 28 | 112 | 27.8 ± 2 | 32 | Ventral Prostate weight [1, 8]: 13.0 ± 0.3 mg; Seminal Vesicle weight [1, 9]: 10.4 ± 0.5 mg
3 | CC(=O)O[C@]1(C(C)=O)CC[C@H]2[C@@H]3C[C@H](C)C4=CC(=O)[C@@H]5C[C@@H]5[C@@H]4[C@H]3CC[C@@]21C [Example 4, 17α-acetoxy-1α,2α-methylene-6α-methyl-3,20-dioxo-19-nor-pregna-4-ene] | totally inactive | 66 ± 11 | 258 | 22.8 ± 1.7 | 39 | Seminal Vesicle weight [1, 6]: 11.2 ± 0.5 mg; Ventral Prostate weight [1, 7]: 12.1 ± 0.4 mg
4 | CC(=O)O[C@]1(C(C)=O)CC[C@H]2[C@@H]3C[C@H](C)C4=CC(=O)[C@H]5C[C@H]5[C@@H]4[C@H]3CC[C@@]21C [Example 5, 17α-acetoxy-1β,2β-methylene-6α-methyl-3,20-dioxo-19-nor-pregna-4-ene] | – | > 750 ± 6.0 | > 17 | 17.7 ± 2.4 | 50 | –
5 | CC(=O)O[C@]1(C(C)=O)CC[C@H]2[C@@H]3C[C@H](C)C4=CC(=O)CC[C@]4(C)[C@H]3CC[C@@]21C [Medroxyprogesterone acetate] | caused both organs to more or less double in weight | – | – | – | – | Ventral Prostate weight [1, 8]: 29.1 ± 1.4 mg; Seminal Vesicle weight [1, 9]: 19.9 ± 1.8 mg; androgenic properties [5]: weak androgenic properties
6 | CC(=O)O[C@]1(C(C)=O)CC[C@H]2[C@@H]3C=C(C)C4=CC(=O)CC[C@@H]4[C@H]3CC[C@@]21C [Nomegestrol acetate, reference compound] | – | 170 ± 41 | 100 | 8.9 ± 2 | 100 | progestational activity [2]: potent orally active
7 | C[C@]12CC[C@H]3[C@@H](CCC4=CC(=O)CC[C@@]43C)[C@@H]1CC[C@@H]2O [Testosterone] | – | – | – | – | – | Ventral Prostate weight ([1]; Table 3, SC, 0.05 mg/animal/day, mean ± s.e.m. of 8 animals, castrated controls 12.0 ± 0.9, *** p <0.001): 90.4 ± 4.4 mg; Seminal Vesicle weight ([1]; Table 3, SC, 0.05 mg/animal/day, mean ± s.e.m. of 8 animals, castrated controls 12.3 ± 0.7, *** p <0.001): 90.3 ± 6.7 mg; Seminal Vesicle weight ([1]; Table 4, SC, 0.05 mg/animal/day, mean ± s.e.m. of 7 or 8 animals, castrated controls 10.4 ± 0.6, *** p <0.001): 79.0 ± 5.3 mg; Ventral Prostate weight ([1]; Table 4, SC, 0.05 mg/animal/day, mean ± s.e.m. of 7 or 8 animals, castrated controls 11.8 ± 0.6, *** p <0.001): 80.9 ± 3.4 mg
